{
  "source": "paper PMC8206283",
  "about": "“Three New Quinazoline-Containing Indole Alkaloids From the Marine-Derived Fungus Aspergillus sp. HNMF114” (Frontiers in Microbiology, 2021)",
  "target": "T1, ryanodine receptor from Spodoptera frugiperda (sfRyR) (Spodoptera frugiperda, UniProt A0A4P8L6R5)",
  "T1 construct": "gene RyR",
  "T1 sequence (A0A4P8L6R5 entry or part of it)": "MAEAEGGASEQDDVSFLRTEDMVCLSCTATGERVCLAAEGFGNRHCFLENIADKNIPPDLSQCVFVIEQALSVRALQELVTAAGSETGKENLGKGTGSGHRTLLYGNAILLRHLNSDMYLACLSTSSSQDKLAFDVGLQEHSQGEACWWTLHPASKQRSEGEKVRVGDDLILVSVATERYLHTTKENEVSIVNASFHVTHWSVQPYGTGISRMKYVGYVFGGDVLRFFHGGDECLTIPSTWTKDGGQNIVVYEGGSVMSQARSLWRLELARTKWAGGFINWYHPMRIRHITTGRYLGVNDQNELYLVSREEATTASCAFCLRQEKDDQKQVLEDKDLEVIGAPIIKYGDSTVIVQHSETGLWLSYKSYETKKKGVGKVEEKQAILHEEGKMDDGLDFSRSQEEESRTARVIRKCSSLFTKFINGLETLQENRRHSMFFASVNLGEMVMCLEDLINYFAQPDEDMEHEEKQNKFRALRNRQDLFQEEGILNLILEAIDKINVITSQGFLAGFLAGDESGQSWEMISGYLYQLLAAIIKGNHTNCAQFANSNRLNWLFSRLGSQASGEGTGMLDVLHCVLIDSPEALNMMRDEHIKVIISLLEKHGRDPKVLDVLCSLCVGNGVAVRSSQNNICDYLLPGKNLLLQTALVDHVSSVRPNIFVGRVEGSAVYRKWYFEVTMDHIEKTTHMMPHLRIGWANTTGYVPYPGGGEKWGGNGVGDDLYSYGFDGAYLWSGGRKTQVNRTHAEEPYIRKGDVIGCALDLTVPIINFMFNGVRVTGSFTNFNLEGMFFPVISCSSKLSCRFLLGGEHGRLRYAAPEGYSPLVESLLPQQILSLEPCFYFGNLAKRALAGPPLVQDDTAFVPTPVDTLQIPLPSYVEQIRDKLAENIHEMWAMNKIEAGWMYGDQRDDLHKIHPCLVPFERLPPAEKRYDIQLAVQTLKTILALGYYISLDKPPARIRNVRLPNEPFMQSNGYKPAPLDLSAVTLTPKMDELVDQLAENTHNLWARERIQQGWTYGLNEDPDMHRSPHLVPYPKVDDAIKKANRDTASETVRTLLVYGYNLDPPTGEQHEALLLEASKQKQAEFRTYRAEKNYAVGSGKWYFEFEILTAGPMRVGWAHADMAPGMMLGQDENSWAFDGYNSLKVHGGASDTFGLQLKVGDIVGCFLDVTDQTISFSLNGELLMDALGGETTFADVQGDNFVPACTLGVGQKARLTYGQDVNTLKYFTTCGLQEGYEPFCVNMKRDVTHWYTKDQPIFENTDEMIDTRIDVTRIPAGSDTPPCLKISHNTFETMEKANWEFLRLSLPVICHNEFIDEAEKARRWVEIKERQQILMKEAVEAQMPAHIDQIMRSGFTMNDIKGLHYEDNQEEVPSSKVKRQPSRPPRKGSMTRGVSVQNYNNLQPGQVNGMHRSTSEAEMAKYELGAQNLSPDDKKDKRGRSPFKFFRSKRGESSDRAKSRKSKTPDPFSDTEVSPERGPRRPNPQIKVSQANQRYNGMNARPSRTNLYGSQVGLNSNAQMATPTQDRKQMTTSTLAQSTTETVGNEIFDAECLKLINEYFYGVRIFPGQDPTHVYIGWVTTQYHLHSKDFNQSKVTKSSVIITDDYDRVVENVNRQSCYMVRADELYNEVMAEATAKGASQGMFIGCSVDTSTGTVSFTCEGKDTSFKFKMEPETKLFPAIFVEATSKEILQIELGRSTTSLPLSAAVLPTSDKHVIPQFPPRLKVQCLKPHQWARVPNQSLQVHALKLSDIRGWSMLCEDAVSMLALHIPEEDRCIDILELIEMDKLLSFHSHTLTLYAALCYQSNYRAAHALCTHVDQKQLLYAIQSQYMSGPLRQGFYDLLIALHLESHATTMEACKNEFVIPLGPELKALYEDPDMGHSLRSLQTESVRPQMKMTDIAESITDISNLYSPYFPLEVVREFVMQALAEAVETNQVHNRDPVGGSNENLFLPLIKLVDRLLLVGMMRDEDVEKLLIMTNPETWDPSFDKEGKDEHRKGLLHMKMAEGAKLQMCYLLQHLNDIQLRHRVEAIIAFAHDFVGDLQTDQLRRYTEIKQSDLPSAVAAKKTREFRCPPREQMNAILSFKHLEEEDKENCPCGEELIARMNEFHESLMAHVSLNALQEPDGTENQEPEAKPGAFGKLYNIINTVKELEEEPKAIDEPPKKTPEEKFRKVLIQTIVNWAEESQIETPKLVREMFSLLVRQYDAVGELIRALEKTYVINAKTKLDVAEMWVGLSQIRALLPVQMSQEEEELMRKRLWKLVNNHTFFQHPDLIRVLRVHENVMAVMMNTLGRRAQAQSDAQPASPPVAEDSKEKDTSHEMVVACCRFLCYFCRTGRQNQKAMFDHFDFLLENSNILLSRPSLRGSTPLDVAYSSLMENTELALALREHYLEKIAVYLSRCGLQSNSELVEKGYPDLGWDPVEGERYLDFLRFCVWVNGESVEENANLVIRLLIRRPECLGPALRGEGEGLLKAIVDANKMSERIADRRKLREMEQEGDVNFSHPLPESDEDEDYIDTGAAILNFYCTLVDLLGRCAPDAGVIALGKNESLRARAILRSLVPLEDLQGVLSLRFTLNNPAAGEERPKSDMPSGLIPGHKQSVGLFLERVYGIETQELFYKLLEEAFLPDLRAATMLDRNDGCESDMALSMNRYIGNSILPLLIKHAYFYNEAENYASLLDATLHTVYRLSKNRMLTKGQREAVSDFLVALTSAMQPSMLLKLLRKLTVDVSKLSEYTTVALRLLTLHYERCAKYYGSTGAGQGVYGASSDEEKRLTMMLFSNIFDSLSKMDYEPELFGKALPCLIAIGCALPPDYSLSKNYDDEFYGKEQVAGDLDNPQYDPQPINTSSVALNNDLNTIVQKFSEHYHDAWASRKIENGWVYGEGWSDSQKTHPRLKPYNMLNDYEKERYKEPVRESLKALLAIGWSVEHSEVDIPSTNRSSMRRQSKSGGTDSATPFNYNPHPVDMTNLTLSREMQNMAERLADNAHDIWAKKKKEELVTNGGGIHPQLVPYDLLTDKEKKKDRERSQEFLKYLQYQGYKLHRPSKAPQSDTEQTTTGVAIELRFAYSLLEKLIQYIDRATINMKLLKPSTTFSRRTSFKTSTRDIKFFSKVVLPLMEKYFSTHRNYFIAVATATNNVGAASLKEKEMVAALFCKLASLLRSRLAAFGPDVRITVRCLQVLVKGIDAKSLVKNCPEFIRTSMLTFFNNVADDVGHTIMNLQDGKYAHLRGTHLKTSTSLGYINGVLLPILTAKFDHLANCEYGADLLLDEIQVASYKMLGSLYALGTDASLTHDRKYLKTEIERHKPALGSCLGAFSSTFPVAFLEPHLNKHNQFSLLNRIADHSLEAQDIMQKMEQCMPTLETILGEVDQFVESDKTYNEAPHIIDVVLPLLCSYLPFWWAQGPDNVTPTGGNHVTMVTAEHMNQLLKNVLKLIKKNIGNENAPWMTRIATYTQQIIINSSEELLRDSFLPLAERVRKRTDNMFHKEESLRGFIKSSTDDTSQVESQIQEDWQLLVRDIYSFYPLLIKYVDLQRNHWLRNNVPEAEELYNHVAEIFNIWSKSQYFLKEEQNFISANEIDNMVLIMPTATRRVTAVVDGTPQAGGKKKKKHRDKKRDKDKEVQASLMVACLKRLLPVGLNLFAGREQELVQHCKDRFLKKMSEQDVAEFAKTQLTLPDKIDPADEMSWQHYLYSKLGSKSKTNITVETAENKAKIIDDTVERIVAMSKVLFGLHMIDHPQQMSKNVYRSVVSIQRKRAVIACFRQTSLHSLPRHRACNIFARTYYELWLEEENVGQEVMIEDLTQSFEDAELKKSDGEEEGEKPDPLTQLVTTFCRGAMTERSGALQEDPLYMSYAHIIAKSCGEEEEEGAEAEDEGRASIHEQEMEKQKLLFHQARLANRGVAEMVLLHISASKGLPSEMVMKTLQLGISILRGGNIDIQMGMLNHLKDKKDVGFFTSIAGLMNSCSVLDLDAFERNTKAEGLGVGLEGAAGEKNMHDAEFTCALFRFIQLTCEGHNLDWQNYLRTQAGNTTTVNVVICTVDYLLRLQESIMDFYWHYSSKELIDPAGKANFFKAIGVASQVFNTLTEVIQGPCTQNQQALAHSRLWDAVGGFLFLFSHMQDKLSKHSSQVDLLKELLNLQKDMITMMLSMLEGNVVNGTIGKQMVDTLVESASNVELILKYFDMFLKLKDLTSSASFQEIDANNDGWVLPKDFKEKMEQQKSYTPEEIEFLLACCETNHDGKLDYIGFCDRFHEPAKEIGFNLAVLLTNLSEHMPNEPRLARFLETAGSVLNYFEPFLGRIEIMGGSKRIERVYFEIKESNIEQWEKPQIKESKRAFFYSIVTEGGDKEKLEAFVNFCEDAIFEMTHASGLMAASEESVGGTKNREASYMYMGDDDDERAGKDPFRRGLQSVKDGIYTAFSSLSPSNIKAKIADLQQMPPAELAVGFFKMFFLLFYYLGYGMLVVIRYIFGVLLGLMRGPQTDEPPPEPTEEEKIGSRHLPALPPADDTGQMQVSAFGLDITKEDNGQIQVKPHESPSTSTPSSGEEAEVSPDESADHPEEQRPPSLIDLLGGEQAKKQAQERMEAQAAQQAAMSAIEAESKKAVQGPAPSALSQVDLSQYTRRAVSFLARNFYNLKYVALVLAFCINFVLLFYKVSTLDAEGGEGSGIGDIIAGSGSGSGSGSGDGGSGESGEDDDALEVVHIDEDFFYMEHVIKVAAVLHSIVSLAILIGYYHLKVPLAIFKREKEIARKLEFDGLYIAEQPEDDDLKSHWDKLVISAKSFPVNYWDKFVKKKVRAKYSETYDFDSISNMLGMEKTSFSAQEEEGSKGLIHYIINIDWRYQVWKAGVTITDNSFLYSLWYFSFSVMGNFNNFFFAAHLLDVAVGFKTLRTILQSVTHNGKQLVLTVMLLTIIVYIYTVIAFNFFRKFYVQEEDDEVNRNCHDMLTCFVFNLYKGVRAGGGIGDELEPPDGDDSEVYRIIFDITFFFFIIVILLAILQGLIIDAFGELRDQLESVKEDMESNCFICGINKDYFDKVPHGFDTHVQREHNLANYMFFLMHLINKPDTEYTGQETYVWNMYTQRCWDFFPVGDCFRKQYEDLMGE",
  "assay": "time-lapse R-CEPIA1er [Ca2+]ER measurement in HEK cells stably expressing sfRyR (positive control)",
  "type": "cell-based",
  "data": [
    {"smiles": "CNC(=O)c1cc(Cl)cc(C)c1NC(=O)c1cc(Br)nn1-c1ncccc1Cl", "note": "[chlo, chlorantraniliprole]", "values": [
      {"measurement": "time-lapse R-CEPIA1er [Ca2+]ER measurement in HEK cells stably expressing sfRyR", "result": "their effect in intracellular Ca2 release is similar to that of the positive control chlo"}
    ]}
  ]
}
